From patent US20210085640A1, “ACYLATED CATECHIN POLYPHENOLS AND METHODS OF THEIR USE FOR THE TREATMENT OF CANCER” (Flagship Pioneering Innovations V, Inc., priority 2018, published 2021)

How the values were obtained:
Type in all cases: cell-based
A-431 skin cancer cells = experiment: Cancer cell survival (CellTiter-Glo), A-431; conditions: Homo sapiens, A-431 cells, 72 h
Procedure, shortened: (§1)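 Luminescent ATP read-out (CellTiter-Glo) after 72 h compound exposure at 37 C/5% CO2. Survival % is calculated against untreated cells minus medium background, and IC50 is taken from nine concentrations run in triplicate. Plating density was 4×10^3 cells/well with overnight attachment beforehand.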

MCF7 breast cancer cells = experiment: Cancer cell survival (CellTiter-Glo), MCF7; conditions: Homo sapiens, 72 h, read-out: Cell survival at given concentration
Procedure, shortened: as §1

[1] = system: Daudi lymphoma cancer cells; experiment: Cancer cell survival (CellTiter-Glo), Daudi; conditions: Homo sapiens, 72 h
Procedure, shortened: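 Daudi cells (4×10^3/well) were exposed for 72 h at 37 °C to nine concentrations of compound, added as 10× solutions spanning 1 μM–10 mM (fatty acids) or 100 nM–1 mM (others). CellTiter-Glo luminescence gave % survival versus untreated, medium-blank corrected; IC50 derived.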

[2] = system: HCT 116 colorectal cancer cells; experiment: Cancer cell survival (CellTiter-Glo), HCT 116; conditions: Homo sapiens, HCT 116 cells, 72 h
Procedure, shortened: as §1

T24 bladder cancer cells = experiment: Cancer cell survival (CellTiter-Glo), T24; conditions: Homo sapiens
Procedure, shortened: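 Viability by CellTiter-Glo after 72 h compound treatment of T24 bladder cancer cells (4×10^3/well, plated the night before), nine concentration levels in triplicate. Percent survival normalised to untreated cells minus medium background, from which IC50 was determined.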

[3] = system: PC-3 prostate cancer cells; experiment: Cancer cell survival (CellTiter-Glo), PC-3; conditions: Homo sapiens, PC-3 cells, 72 h, read-out: Cell survival at given concentration
Procedure, shortened: as §1

AGS stomach cancer cells = experiment: Cancer cell survival (CellTiter-Glo), AGS; conditions: 72 h
Procedure, shortened: as §1

A549 lung cancer cells = experiment: Cancer cell survival (CellTiter-Glo), A549; conditions: Homo sapiens, 72 h, read-out: Cell survival at given concentration
Procedure, shortened: as §1

[4] = 101 nM, read-out: Cell survival at given concentration
[5] = 318 nM, read-out: Cell survival at given concentration
[6] = 1 μM, read-out: Cell survival at given concentration
[7] = 3 μM, read-out: Cell survival at given concentration
[8] = 10 μM, read-out: Cell survival at given concentration
[9] = 32 μM, read-out: Cell survival at given concentration
[10] = 100 μM, read-out: Cell survival at given concentration
[11] = 316 μM, read-out: Cell survival at given concentration
[12] = 1000 μM, read-out: Cell survival at given concentration

## O=c1cc(-c2ccc(O)cc2)oc2cc(O)cc(O)c12 [apigenin]
A-431 skin cancer cells; [4]
  viability at 0.101 µM: 101%
A-431 skin cancer cells; [5]
  viability at 0.318 µM: 100%
A-431 skin cancer cells; [6]
  viability at 1 µM: 100%
A-431 skin cancer cells; [7]
  viability at 3 µM: 102%
A-431 skin cancer cells; [8]
  viability at 10 µM: 100%
A-431 skin cancer cells; [9]
  viability at 32 µM: 83%
A-431 skin cancer cells; [10]
  viability at 100 µM: 58%
A-431 skin cancer cells; [11]
  viability at 316 µM: 47%
A-431 skin cancer cells; [12]
  viability at 1000 µM: 45%
A-431 skin cancer cells; Table 9.1
  IC50: 178 µM
MCF7 breast cancer cells; 101 nM
  viability at 0.101 µM: 98%
MCF7 breast cancer cells; 318 nM
  viability at 0.318 µM: 99%
MCF7 breast cancer cells; 1 μM
  viability at 1 µM: 98%
MCF7 breast cancer cells; 3 μM
  viability at 3 µM: 100%
MCF7 breast cancer cells; 10 μM
  viability at 10 µM: 102%
MCF7 breast cancer cells; 32 μM
  viability at 32 µM: 89%
MCF7 breast cancer cells; 100 μM
  viability at 100 µM: 82%
MCF7 breast cancer cells; 316 μM
  viability at 316 µM: 76%
MCF7 breast cancer cells; 1000 μM
  viability at 1000 µM: 73%
[1]; [4]
  viability at 0.101 µM: 97%
[1]; [5]
  viability at 0.318 µM: 96%
[1]; [6]
  viability at 1 µM: 101%
[1]; [7]
  viability at 3 µM: 101%
[1]; [8]
  viability at 10 µM: 103%
[1]; [9]
  viability at 32 µM: 86%
[1]; [10]
  viability at 100 µM: 60%
[1]; [11]
  viability at 316 µM: 47%
[1]; [12]
  viability at 1000 µM: 44%
[1]; Table 4.1
  IC50: 186 µM
[2]; [4]
  viability at 0.101 µM: 99%
[2]; [5]
  viability at 0.318 µM: 100%
[2]; [6]
  viability at 1 µM: 100%
[2]; [7]
  viability at 3 µM: 99%
[2]; [8]
  viability at 10 µM: 98%
[2]; [9]
  viability at 32 µM: 60%
[2]; [10]
  viability at 100 µM: 32%
[2]; [11]
  viability at 316 µM: 19%
[2]; [12]
  viability at 1000 µM: 15%
[2]; Table 6.1
  IC50: 45.8 µM
T24 bladder cancer cells; T-24, 101 nM, 72 h, read-out: Cell survival at given concentration
  viability at 0.101 µM: 98%
T24 bladder cancer cells; T-24, 318 nM, 72 h, read-out: Cell survival at given concentration
  viability at 0.318 µM: 100%
T24 bladder cancer cells; T-24, 1 μM, 72 h, read-out: Cell survival at given concentration
  viability at 1 µM: 102%
T24 bladder cancer cells; T-24, 3 μM, 72 h, read-out: Cell survival at given concentration
  viability at 3 µM: 105%
T24 bladder cancer cells; T-24, 10 μM, 72 h, read-out: Cell survival at given concentration
  viability at 10 µM: 98%
T24 bladder cancer cells; T-24, 32 μM, 72 h, read-out: Cell survival at given concentration
  viability at 32 µM: 79%
T24 bladder cancer cells; T-24, 100 μM, 72 h, read-out: Cell survival at given concentration
  viability at 100 µM: 60%
T24 bladder cancer cells; T-24, 316 μM, 72 h, read-out: Cell survival at given concentration
  viability at 316 µM: 42%
T24 bladder cancer cells; T-24, 1000 μM, 72 h, read-out: Cell survival at given concentration
  viability at 1000 µM: 32%
T24 bladder cancer cells; T-24, 72 h, Table 3.1, read-out: 1050
  IC50: 161 µM
[3]; 101 nM
  viability at 0.101 µM: 100%
[3]; 318 nM
  viability at 0.318 µM: 100%
[3]; 1 μM
  viability at 1 µM: 98%
[3]; 3 μM
  viability at 3 µM: 102%
[3]; 10 μM
  viability at 10 µM: 107%
[3]; 32 μM
  viability at 32 µM: 98%
[3]; 100 μM
  viability at 100 µM: 82%
[3]; 316 μM
  viability at 316 µM: 72%
[3]; 1000 μM
  viability at 1000 µM: 70%
AGS stomach cancer cells; [4]
  viability at 0.101 µM: 99%
AGS stomach cancer cells; [5]
  viability at 0.318 µM: 102%
AGS stomach cancer cells; 1 μM, Table 10.1, read-out: Cell survival at given concentration
  viability at 1 µM: 104%
AGS stomach cancer cells; 3 μM, Table 10.1, read-out: Cell survival at given concentration
  viability at 3 µM: 101%
AGS stomach cancer cells; 10 μM, Table 10.1, read-out: Cell survival at given concentration
  viability at 10 µM: 106%
AGS stomach cancer cells; 32 μM, Table 10.1, read-out: Cell survival at given concentration
  viability at 32 µM: 102%
AGS stomach cancer cells; 100 μM, Table 10.1, read-out: Cell survival at given concentration
  viability at 100 µM: 89%
AGS stomach cancer cells; [11]
  viability at 316 µM: 71%
AGS stomach cancer cells; [12]
  viability at 1000 µM: 64%
A549 lung cancer cells; 101 nM
  viability at 0.101 µM: 101%
A549 lung cancer cells; 318 nM
  viability at 0.318 µM: 102%
A549 lung cancer cells; 1 μM
  viability at 1 µM: 102%
A549 lung cancer cells; 3 μM
  viability at 3 µM: 98%
A549 lung cancer cells; 10 μM
  viability at 10 µM: 102%
A549 lung cancer cells; 32 μM
  viability at 32 µM: 100%
A549 lung cancer cells; 100 μM
  viability at 100 µM: 82%
A549 lung cancer cells; 316 μM
  viability at 316 µM: 67%
A549 lung cancer cells; 1000 μM
  viability at 1000 µM: 62%
